Test results as given in patent US20100178279A1, “Beta-Glucan Enhances Hematopoietic Progenitor Cells Engraftment and Promotes Recovery from Chemotoxicity” (Cornell University, priority 2009, published 2010).

Legend:
[1] = tested on: Gr-1+ granulocytes/monocytes; experiment: Flow cytometric oxidative burst (ROS) assay on peripheral blood ex vivo after Ptx; assay type: in vivo, mouse
Description: Flow Cytometric Oxidative Burst Assay: Peripheral blood was obtained by retro orbital bleeding; about 400 microL blood were collected into heparinized tubes. The respiratory burst assay was performed as described with modifications. Briefly, 100 microL blood aliquots were added to each tube, wash buffer or stimuli (opsonized E. coli, fMLP (N-formylmethionyl-leucyl-phenylalanine) were added at 20 microL. Tubes were incubated in a water bath at 37° C. for 10 mins, then 20 microL of dihydrorhodamine (DHR-123) was added and tubes were vortexed, and then incubated for another 10 mins. Red blood cells were lysed and removed after washing once. R-PE conjugated rat anti-mouse Ly-6G and Ly-6C (Gr-1, BD Biosciences) antibody was added in the presence of Mouse BD Fc Block (purified anti-mouse CD16/CD32 monoclonal antibody, 2.4G2, BD Biosciences) at 1 μg/million cells, and incubated at room temperature in the dark for 15 mins. Cells were washed; supernatants removed and 200 μL of DNA staining solution was added. The samples were analyzed by flow cytometer (FACSCalibur) using CellQuest. The initial gate was set with Gr-1 to identify granulocytes/monocytes; the percentage of responding cells was then analyzed with FlowJo software.
After brief exposure of whole blood to opsonized E. coli and the chemotactic peptide N-formyl-Met-Leu-Phe (fMLP) ex vivo, fluorescence of ROS positive cells was detected by the oxidation of the dihydrorhodamine substrate. Blood samples were collected from each group 4 days after the last dose of Ptx and again on post-day 11. […] Post-day 4 was 3 days after G-CSF injection for the Ptx+G-CSF group. The ROS responses of normal, untreated mice were also studied.

[2] = tested on: B6D2F1 mice; experiment: Paclitaxel-induced leukopenic mouse model, serial complete blood counts; assay type: in vivo
Description: Certified Rodent Diet #5053 (Lab Diet) was used. […] Mice were weighed each day. […] Sacrifice was performed by the CO2 method. […]
To determine the dose of Ptx required for induction of acute hematotoxicity that also permitted spontaneous recovery, fractionated dosing at 10 to 30 mg/kg was given 3 times every other day to groups of mice. After doses greater than 15 mg/kg were found effective, we compared cumulative doses of 60 and 90 mg/kg to untreated mice (n=4 each group). Serial CBCs were obtained from each mouse. Variation was evaluated by one-way ANCOVA and within mouse correlation was included as the covariate. Pair-wise differences were evaluated by Tukey's posttest. Treatment group variation was assessed by two-way ANOVA over the interval followed by between-group comparisons using Bonferroni posttests.

[3] = tested on: B6D2F1 mice; experiment: Peripheral blood cell recovery (complete blood cell count) after Ptx treatment
Description: Mice: B6D2F1 mice female, 6-8 weeks old were purchased from Jackson Laboratory, and were maintained in a pathogen-free facility at Memorial Sloan-Kettering Cancer Center (MSKCC, New York, N.Y.) with access to fresh water and food ad libitum. Certified Rodent Diet #5053 (Lab Diet) was used. All animal experiments were approved by the MSKCC Animal Care Committee. Treatments: Ptx was intraperitoneally injected (i.p) at 30 mg/kg/day over […] with cumulative dose of 90-120 mg/kg to mice. Neupogen (G-CSF) was given i.v. at 80 microg/kg at 24 hrs after the last dose of Ptx. […] Mice were weighed each day. Blood was taken from the tail vein for complete blood cell (CBC) counts. Sacrifice was performed by the CO2 method.
Complete Blood Cell Count: Approximately 20 microL of blood was taken from the tail vein after warming, for assessment of CBC by automated differential analysis using the Hemavet instrument after instrument standardization.
Statistical Analysis: Data are presented as mean percentage ±SD or mean counts ±SD. To identify the appropriate dose of Ptx, ANCOVA was used to examine significance of variation in average cell counts or percentage of change from baseline across all days for the cell type of interest in a treatment group and possible within-mouse correlation was adjusted by including mouse ID as a covariate. If overall significance by ANCOVA was shown, Tukey's method was used to determine between-day significance. To assess significance of variation across dose groups (including untreated) over the treatment interval, two-way ANOVA was used and then Bonferroni method was used to adjust for between-group multiple comparisons. In the studies of blood cell recovery, the decrease in cell count was calculated as compared to the corresponding baseline during the treatment for each mouse. The averages of the group decreases across different treatment groups were compared using two-way ANOVA to determine significance. Two sample t-tests were used to compare the difference in average percentage change at a given time point between any two treatment groups. Tukey's or Bonferroni method was used to adjust p-values for multiple comparisons where appropriate. The analyses were carried out using GraphPad Prism software version 5.01. Additional information is provided in the text.
30 mg/kg/day Ptx was given over 3 consecutive days (90 mg/kg cumulative dose) to each group. […] The Ptx+G-CSF group received one dose of intravenous G-CSF (80 ug/kg), 24 hrs after the last Ptx dose. Changes in absolute numbers of leukocytes (white blood cell count) from baseline were evaluated from post-day 1 to post-day 8 after chemotherapy. For each mouse, percent change in counts from baseline was calculated. Change from baseline across days within a treatment group was assessed by ANCOVA and within-mouse correlation was included as appropriate. Paired t-tests were used to compare any two time-points. Differences among treatment groups across the experimental period were assessed by two-way

[4] = Ptx 90 mg/kg, MBG 6 mg/kg/day oral or G-CSF 80 ug/kg i.v. once

## CC(=O)O[C@H]1C(=O)[C@@]2(C)[C@H]([C@H](OC(=O)c3ccccc3)[C@]3(O)C[C@H](OC(=O)[C@H](O)[C@@H](NC(=O)c4ccccc4)c4ccccc4)C(C)=C1C3(C)C)[C@]1(OC(C)=O)CO[C@@H]1C[C@@H]2O [Ptx, Paclitaxel]
[1]; mouse, in vivo
  Unstimulated ROS production on post-day 11 compared to post-day 4: unchanged
[1]; p<0.0001
  ROS response to E. coli on post-day 11 compared to post-day 4: increased
  ROS response to fMLP on post-day 11 compared to post-day 4: decreased
[1]; post-day 4
  ROS response to E. coli compared to untreated mice: lower compared to untreated mice
[2]; cumulative Ptx dose 60 mg/kg
  Leukocyte numbers compared to untreated mice: fewer leukocytes
[2]; cumulative Ptx dose 60 mg/kg, ANCOVA, no pair-wise comparisons significant
  Neutrophil counts across all days: overall drop in neutrophil counts across all days was significant
[2]; cumulative Ptx dose 90 mg/kg
  Leukocyte numbers compared to untreated mice: lower leukocyte numbers on days 3, 4, and 5
  Lymphocyte numbers compared to the untreated group: lower over days 3, 4, and 5
  Lymphocytes compared to baseline: lower on day 8 compared to baseline
  Neutrophil counts compared to baseline: counts were significantly lower on days 4 and 5 compared to baseline
[2]; cumulative Ptx dose 90 mg/kg (higher dose)
  Neutrophils compared to the untreated group: more reduced
[2]; cumulative Ptx dose 90 mg/kg, one-way ANCOVA
  Changes in leukocyte numbers within group: produced significant changes in leukocyte numbers
[2]; given 3 times every other day
  Fractionated Ptx dose found effective for induction of acute hematotoxicity: greater than 15 mg/kg
[3]; [4]
  Leukocyte levels by post-day 5 compared to earlier post-days: Counts improved by post-day 5 and 8 compared to post-day 1
  Lymphocyte recovery time course relative to baseline: baseline levels were not achieved, even by post-day 8
  Neutrophil recovery time course: Baseline levels were achieved by post-day 8
[3]; early recovery period
  Decrease in neutrophil level on post-day 5, between groups: greater
[3]; mouse, in vivo
  Duration of suppression of peripheral blood white blood cell counts below baseline levels: more than 8 days
  Monocyte counts below baseline at lowest point: 77.6±13%

B1: G-CSF: Neupogen (G-CSF) from Amgen; recombinant human G-CSF (protein, UniProt P09919 31-207, looked up)
Granulocyte …: TPLGPASSLPQSFLLKCLEQVRKIQGDGAALQEKLVSECATYKLCHPEELVLLGHSLGIPWAPLSSCPSQALQLAGCLSQLHSGLFLYQGLLQALEGISPELGPTLDTLQLDVADFATTIWQQMEELGMAPALQPTQGAMPAFASAFQRRAGGVLVASHLQSFLEVSYRVLRHLAQP
modifications: filgrastim, N-terminal methionine
[3]; Ptx 90 mg/kg, 24 hrs after G-CSF injection
  Decline in leukocytes on post-day 2: not observed
[3]; mouse, in vivo
  Effect on Ptx-induced increase of platelet numbers: also not affected
